Measured values reported in patent US11034698B2, “Pyrazolo[ 1,5a]pyrimidine derivatives as IRAK4 modulators” (priority 2017, dated 2021).
Structures can show the parent of a compound that is named as a salt.

What follows are molecules tested against human IRAK4 (Homo sapiens (Human), UniProt Q9NWZ3) (assay: IRAK4 kinase inhibition, Transcreener fluorescence polarization (ADP)). Conditions: not given.
Format: biochemical
Protocol: Compounds were assayed for inhibition of human IRAK4 and IRAK1 catalytic activity using recombinant enzyme produced from insect cells. Full-length IRAK4 protein, carrying an N-terminal His6-Tag, was obtained from Life Technologies (Carlsbad, Calif., USA). The IRAK1 construct was produced internally and was comprised of IRAK1 residues Arg194 to Ser712, preceded by an NH2-terminal His6 tag and the coding sequence for glutathione-S-transferase.
Kinase activities were assayed using the Transcreener-Fluorecescence polarization platform (BelBrook Labs, Madison, Wis., USA) that measures amounts of the reaction product, ADP.

human IRAK4, sequence (Q9NWZ3 whole entry): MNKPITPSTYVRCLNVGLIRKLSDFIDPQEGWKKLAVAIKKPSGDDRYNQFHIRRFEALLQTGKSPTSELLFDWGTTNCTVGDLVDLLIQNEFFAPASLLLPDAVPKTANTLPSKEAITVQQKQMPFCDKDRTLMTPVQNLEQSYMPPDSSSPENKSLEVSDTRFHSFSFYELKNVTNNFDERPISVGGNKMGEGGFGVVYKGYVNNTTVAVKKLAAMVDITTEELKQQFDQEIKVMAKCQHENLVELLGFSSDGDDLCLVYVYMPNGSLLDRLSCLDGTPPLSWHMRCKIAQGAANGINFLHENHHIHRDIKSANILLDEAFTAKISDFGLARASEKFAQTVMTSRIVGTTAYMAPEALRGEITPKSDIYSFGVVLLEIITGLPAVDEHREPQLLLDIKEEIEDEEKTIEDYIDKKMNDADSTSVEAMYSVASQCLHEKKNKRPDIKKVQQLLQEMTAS

| Compound | Ki [nM] |
| --- | --- |
| CC(C)(O)[C@H](F)CN1Cc2cc(NC(=O)c3cnn4cccnc34)c(O[C@H]3CCOC3)cc2C1=O (single isomer, unassigned) [Example 84] | 0.49 |
| CCN1C[C@@H](COc2cc3c(cc2NC(=O)c2cnn4cccnc24)CC(C)(C)O3)CC1=O (single isomer, unassigned) [Example 23] | 250 |
| CC(C)(O)[C@H](F)CN1Cc2cc(NC(=O)c3cnn4cccnc34)c(OC[C@H]3CNC(=O)C3)cc2C1=O (single isomer, unassigned) [Example 72] | 1 |
| CC(C)(O)[C@H](F)CN1Cc2cc(NC(=O)c3cnn4cccnc34)c(O[C@@H]3CCNC3)cc2C1=O (single isomer, unassigned) [Example 63] | 5.3 |
| CC1(C)Cc2cc(NC(=O)c3cnn4cccnc34)c(OC[C@H]3Cc4ccccc4[C@H]3N)cc2O1 (single isomer, unassigned) [Example 27] | 670 |
| CN(C)c1cc2c(cc1NC(=O)c1cnn3cccnc13)CC(C)(C)[C@@H]2O (single isomer, unassigned) [Example 157] | 310 |

Same assay, conditions: recombinant full-length His6-IRAK4 1.25 nM; 125 uM ATP; 125 uM peptide; 90 min; ATP Km 642 uM; read-out: IRAK4 Ki

| Compound | Ki [nM] |
| --- | --- |
| O=C(Nc1cc2c(cc1N1CCOCC1)OCCS2)c1cnn2cccnc12 [Example 153, N-(7-Morpholino-2,3-dihydro-1,4-benzoxathiin-6-yl)pyrazolo[1,5-a]pyrimidine-3-carboxamide] | 280 |
| CC(C)(O)[C@H](F)CN1Cc2cc(NC(=O)c3cnn4cccnc34)c(OC3CC3)cc2C1=O [Example 77, (R)—N-(6-Cyclopropoxy-2-(2-fluoro-3-hydroxy-3-methylbutyl)-1-oxoisoindolin-5-yl)pyrazolo[1,5-a]pyrimidine-3-carboxamide] | 0.63 |
| CC(C)Oc1cc2c(cc1NC(=O)c1cnn3cccnc13)CN([C@H]1CCOC1)C2=O [Example 68, (S)-N-(6-Isopropoxy-1-oxo-2-(tetrahydrofuran-3-yl)isoindolin-5-yl)pyrazolo[1,5-a]pyrimidine-3-carboxamide] | 2.5 |
| CC(C)(O)[C@H](F)CN1Cc2cc(NC(=O)c3cnn4cccnc34)c(OC3CNC3)cc2C1=O [Example 73, N-[6-(Azetidin-3-yloxy)-2-[(2R)-2-fluoro-3-hydroxy-3-methyl-butyl]-1-oxo-isoindolin-5-yl]pyrazolo[1,5-a]pyrimidine-3-carboxamide hydrochloride] | 3.7 |
| CO[C@@H]1C[C@H]2CN(c3cc4c(cc3NC(=O)c3cnn5cccnc35)CN(C[C@@H](F)C(C)(C)O)C4=O)CCN2C1 [Example 101, N-(2-((R)-2-Fluoro-3-hydroxy-3-methylbutyl)-6-((7R,8aS)-7-methoxyhexahydropyrrolo[1,2-a]pyrazin-2(1H)-yl)-1-oxoisoindolin-5-yl)pyrazolo[1,5-a]pyrimidine-3-carboxamide] | 12 |
| CN(C)c1cc2c(cc1NC(=O)c1cnn3cccnc13)CC(C)(C)[C@H]2O [Example 156, N-[(1R)-6-(Dimethylamino)-1-hydroxy-2,2-dimethyl-indan-5-yl]pyrazolo[1,5-a]pyrimidine-3-carboxamide] | 16 |
| Cn1ccc2cc(NC(=O)c3cnn4cccnc34)c(N3CCOCC3)cc2c1=O [Example 152, N-(2-Methyl-7-morpholino-1-oxo-1,2-dihydroisoquinolin-6-yl)pyrazolo[1,5-a]pyrimidine-3-carboxamide] | 210 |
| CC1(C)Cc2cc(NC(=O)c3cnn4cccnc34)c(O[C@H]3CN(CC(N)=O)C[C@@H]3N)cc2O1 [Example 19, N-(6-(((3S,4S)-4-Amino-1-(2-amino-2-oxoethyl)pyrrolidin-3-yl)oxy)-2,2-dimethyl-2,3-dihydrobenzofuran-5-yl)pyrazolo[1,5-a]pyrimidine-3-carboxamide] | 53 |
| CC1(C)Cc2cc(NC(=O)c3cnn4cccnc34)c(N3CCN(CCN)CC3)cc2O1 [Example 1, N-[6-[4-(2-aminoethyl)piperazin-1-yl]-2,2-dimethyl-3H-benzofuran-5-yl]pyrazolo[1,5-a]pyrimidine-3-carboxamide] | 7.4 |
| COc1cc2c(cc1NC(=O)c1cnn3ccc(N4C[C@@H](N)CC(F)(F)C4)nc13)CC(C)(C)O2 [Example 36, (S)-5-(5-Amino-3,3-difluoropiperidin-1-yl)-N-(6-methoxy-2,2-dimethyl-2,3-dihydrobenzofuran-5-yl)pyrazolo[1,5-a]pyrimidine-3-carboxamide] | 14 |
| COc1cc2c(cc1NC(=O)c1cnn3cccnc13)CN(C[C@@H](F)C(C)(C)O)C2=O [Example 86, (R)-N-(2-(2-Fluoro-3-hydroxy-3-methylbutyl)-6-methoxy-1-oxoisoindolin-5-yl)pyrazolo[1,5-a]pyrimidine-3-carboxamide] | 1.3 |
| CN(C)c1cc2c(cc1NC(=O)c1cnn3ccc(C(=O)NC4CC4)nc13)CN(C[C@@H](F)C(C)(C)O)C2=O [Example 132, (R)—N^5-Cyclopropyl-N^3-(6-(dimethylamino)-2-(2-fluoro-3-hydroxy-3-methylbutyl)-1-oxoisoindolin-5-yl)pyrazolo[1,5-a]pyrimidine-3,5-dicarboxamide] | 19 |
| CC(C)(O)[C@H](F)CN1Cc2cc(NC(=O)c3cnn4cc(O)cnc34)c(N3CCOCC3)cc2C1=O [Example 133, (R)—N-(2-(2-Fluoro-3-hydroxy-3-methylbutyl)-6-morpholino-1-oxoisoindolin-5-yl)-6-hydroxypyrazolo[1,5-a]pyrimidine-3-carboxamide] | 5.7 |
| CCc1nocc1CN1CCN(c2cc3c(cc2NC(=O)c2cnn4cccnc24)CN(C[C@@H](F)C(C)(C)O)C3=O)CC1 [Example 104, (R)-N-(6-(4-((3-Ethylisoxazol-4-yl)methyl)piperazin-1-yl)-2-(2-fluoro-3-hydroxy-3-methylbutyl)-1-oxoisoindolin-5-yl)pyrazolo[1,5-a]pyrimidine-3-carboxamide] | 5 |
| Cc1cnc2c(C(=O)Nc3cc4c(cc3OC(C)C)C(=O)N(C[C@@H](F)C(C)(C)O)C4)cnn2c1 [Example 81, (R)-N-(2-(2-Fluoro-3-hydroxy-3-methylbutyl)-6-isopropoxy-1-oxoisoindolin-5-yl)-6-methylpyrazolo[1,5-a]pyrimidine-3-carboxamide] | 0.42 |
| CC(C)(O)[C@H](F)CN1Cc2cc(NC(=O)c3cnn4cccnc34)c(N3CCN(CC(F)(F)F)CC3)cc2C1=O [Example 109, (R)-N-(2-(2-Fluoro-3-hydroxy-3-methylbutyl)-1-oxo-6-(4-(2,2,2-trifluoroethyl)piperazin-1-yl)isoindolin-5-yl)pyrazolo[1,5-a]pyrimidine-3-carboxamide] | 2.6 |
| CC(C)N1CCN(c2cc3c(cc2NC(=O)c2cnn4cccnc24)CN(C[C@@H](F)C(C)(C)O)C3=O)CC1 [Example 113, (R)-N-(2-(2-Fluoro-3-hydroxy-3-methylbutyl)-6-(4-isopropylpiperazin-1-yl)-1-oxoisoindolin-5-yl)pyrazolo[1,5-a]pyrimidine-3-carboxamide] | 7.5 |
| O=C(Nc1cc2c(cc1N1CCOCC1)N(CCO)C(=O)CC2)c1cnn2cccnc12 [Example 47, N-(1-(2-Hydroxyethyl)-7-morpholino-2-oxo-1,2,3,4-tetrahydroquinolin-6-yl)pyrazolo[1,5-a]pyrimidine-3-carboxamide] | 53 |
| CC(C)N1Cc2cc(NC(=O)c3cnn4cccnc34)c(N(C)C)cc2C1=O [Example 95, N-[6-(Dimethylamino)-2-isopropyl-1-oxo-isoindolin-5-yl]pyrazolo[1,5-a]pyrimidine-3-carboxamide] | 1.9 |
| O=C(Nc1cc2c(cc1N1CCOCC1)C(=O)N(C1CC3(COC3)C1)C2)c1cnn2cccnc12 [Example 94, N-[6-Morpholino-2-(2-oxaspiro[3.3]heptan-6-yl)-1-oxo-isoindolin-5-yl]pyrazolo[1,5-a]pyrimidine-3-carboxamide] | 4.9 |
| C[C@H]1C[C@@H]2CN(c3cc4c(cc3NC(=O)c3cnn5cccnc35)CN(C[C@@H](F)C(C)(C)O)C4=O)CCN2C1 [Example 110, N-[6-[(7S,8aR)-7-Methyl-3,4,6,7,8,8a-hexahydro-1H-pyrrolo[1,2-a]pyrazin-2-yl]-2-[(2R)-2-fluoro-3-hydroxy-3-methyl-butyl]-1-oxo-isoindolin-5-yl]pyrazolo[1,5-a]pyrimidine-3-carboxamide] | 7.5 |
| CO[C@@H]1C[C@@H]2CN(c3cc4c(cc3NC(=O)c3cnn5cccnc35)CN(C[C@@H](F)C(C)(C)O)C4=O)CCN2C1 [Example 107, N-(2-((R)-2-Fluoro-3-hydroxy-3-methylbutyl)-6-((7R,8aR)-7-methoxyhexahydropyrrolo[1,2-a]pyrazin-2(1H)-yl)-1-oxoisoindolin-5-yl)pyrazolo[1,5-a]pyrimidine-3-carboxamide] | 6.5 |
| CC(C)N1Cc2cc(NC(=O)c3cnn4cccnc34)c(N(C)C)c(CO)c2C1=O [Example 151, N-(6-(Dimethylamino)-7-(hydroxymethyl)-2-isopropyl-1-oxoisoindolin-5-yl)pyrazolo[1,5-a]pyrimidine-3-carboxamide] | 8.2 |
| CC(C)(O)[C@H](F)CN1Cc2cc(NC(=O)c3cnn4cccnc34)c(O[C@H]3CC[C@@H](O)C3)cc2C1=O [Example 66, N-(2-((R)-2-Fluoro-3-hydroxy-3-methylbutyl)-6-(((1S,3R)-3-hydroxycyclopentyl)oxy)-1-oxoisoindolin-5-yl)pyrazolo[1,5-a]pyrimidine-3-carboxamide] | 0.67 |
| C[C@@]1(CCC#N)COc2cc(N3CCOCC3)c(NC(=O)c3cnn4cccnc34)cc2C1 [Example 58, (S)—N-(3-(2-Cyanoethyl)-3-methyl-7-morpholinochroman-6-yl)pyrazolo[1,5-a]pyrimidine-3-carboxamide] | 19 |
| Cc1ccc(=O)[nH]c1CN1CCN(c2cc3c(cc2NC(=O)c2cnn4cccnc24)CC(C)(C)O3)CC1 [Example 5, N-(2,2-Dimethyl-6-(4-((3-methyl-6-oxo-1,6-dihydropyridin-2-yl)methyl)piperazin-1-yl)-2,3-dihydrobenzofuran-5-yl)pyrazolo[1,5-a]pyrimidine-3-carboxamide] | 18 |
